Laboratory results reported in ChEMBL document CHEMBL5385864, “Pose, duplicate, then elaborate: Steps towards increased affinity for inhibitors targeting the specificity surface of the Pim-1 kinase” (Eur J Med Chem, 2023).
Activity calls are given as the source filed them. No cut-off for these calls is given here.

Assays:
[1] = biological target: T1, Serine/threonine-protein kinase pim-1 (Homo sapiens, UniProt P11309); experiment: Inhibition of Pim-1 activity (unknown origin) assessed as residual activity at 100 uM by Eurofins radiometric assay relative to control
[2] = biological target: T1, Serine/threonine-protein kinase pim-1; experiment: Inhibition of Pim-1 activity (unknown origin) by Eurofins radiometric assay
[3] = biological target: T1, Serine/threonine-protein kinase pim-1; experiment: Inhibition of Pim-1 in human NCE-G 55T2 cells assessed as reduction in p21 phosphorylation at Thr145 residue at 0.3 mM incubated for 24 hrs by Western blot analysis; assay type: cell-based
[4] = biological target: T1, Serine/threonine-protein kinase pim-1; experiment: Inhibition of Pim-1 activity (unknown origin) at 100 uM by Eurofins radiometric assay
HCT-116 = experiment: Cytotoxicity against human HCT-116 cells assessed as inhibition of cell growth incubated for 3 days by WST-8 assay; conditions: HCT-116, 72 h
[5] = Cytotoxicity against human NCE-G 55T2 cells assessed as inhibition of cell growth incubated for 3 days by WST-8 assay; conditions: NCE-G 55T2, 72 h

| Activity [1] [%] | IC50 [2] [µM] | inhibition [4] | SMILES | further results |
| --- | --- | --- | --- | --- |
| < 50 | – | – | Cc1cc(O)cc2occ(Cc3ccc(C(=O)O)cc3)c12 | – |
| < 50 | 26.4 | – | O=C(O)c1ccc(Cc2coc3cc(O)ccc23)cc1 | – |

The remaining lines, values behind:

| SMILES | Activity [1] [%] | IC50 [2] [µM] | inhibition [4] | further results |
| --- | --- | --- | --- | --- |
| Nc1ccc2c(c1)NC(=O)/C2=C/c1ccc(C(=O)O)cc1 | – | 0.6 | – | inhibition [3]: Active |
| COC(=O)c1ccc(/C=C2/C(=O)Nc3cc(N)ccc32)cc1 | – | – | Active | – |
| Nc1ccc2c(c1)NC(=O)C2Cc1ccc(C(=O)O)cc1 (centres undefined) | – | – | Active | – |
| O=C1Nc2ccccc2/C1=C\c1ccc(C(=O)O)cc1 | – | – | – | IC50 (HCT-116): 200 µM; IC50 [5]: 100 µM |
